Measurements reported in PubChem BioAssay (NCI).
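Tested at 5 concentrations; 48 h exposure; 96-well plates; endpoints linearly interpolated, else capped at highest concentration. GI50 = concentration required for 50% inhibition of growth. The concentration for full growth arrest is given as TGI.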

Key:
Assay in all cases: NCI anticancer screen, dose series, 48 h
786-0 renal = tested on: 786-0 renal
A498 renal = tested on: A498 renal
A549 NSCLC = tested on: A549 NSCLC
ACHN renal = tested on: ACHN renal
BT-549 breast = tested on: BT-549 breast
CAKI-1 renal = tested on: CAKI-1 renal
CCRF-CEM leukemia = tested on: CCRF-CEM leukemia
COLO 205 colon = tested on: COLO 205 colon
DU-145 prostate = tested on: DU-145 prostate
EKVX NSCLC = tested on: EKVX NSCLC
HCC-2998 colon = tested on: HCC-2998 colon
HCT-116 colon = tested on: HCT-116 colon
HCT-15 colon = tested on: HCT-15 colon
HL-60(TB) leukemia = tested on: HL-60(TB) leukemia
HOP-62 NSCLC = tested on: HOP-62 NSCLC
HOP-92 NSCLC = tested on: HOP-92 NSCLC
HS 578T breast = tested on: HS 578T breast
HT29 colon = tested on: HT29 colon
IGROV1 ovarian = tested on: IGROV1 ovarian
K-562 leukemia = tested on: K-562 leukemia
KM12 colon = tested on: KM12 colon
LOX IMVI melanoma = tested on: LOX IMVI melanoma
M14 melanoma = tested on: M14 melanoma
MALME-3M melanoma = tested on: MALME-3M melanoma
MCF7 breast = tested on: MCF7 breast
MDA-MB-231 breast = tested on: MDA-MB-231 breast
MDA-MB-435 = tested on: MDA-MB-435
MOLT-4 leukemia = tested on: MOLT-4 leukemia
NCI-H226 lung = tested on: NCI-H226 lung
NCI-H23 lung = tested on: NCI-H23 lung
NCI-H460 lung = tested on: NCI-H460 lung
NCI-H522 lung = tested on: NCI-H522 lung
NCI/ADR-RES ovarian = tested on: NCI/ADR-RES ovarian
OVCAR-3 ovarian = tested on: OVCAR-3 ovarian
OVCAR-4 ovarian = tested on: OVCAR-4 ovarian
OVCAR-5 ovarian = tested on: OVCAR-5 ovarian
OVCAR-8 ovarian = tested on: OVCAR-8 ovarian
PC-3 prostate = tested on: PC-3 prostate
RPMI-8226 leukemia = tested on: RPMI-8226 leukemia
RXF 393 renal = tested on: RXF 393 renal
SF-268 CNS = tested on: SF-268 CNS
SF-295 CNS = tested on: SF-295 CNS
SF-539 CNS = tested on: SF-539 CNS
SK-MEL-2 melanoma = tested on: SK-MEL-2 melanoma
SK-MEL-28 melanoma = tested on: SK-MEL-28 melanoma
SK-MEL-5 melanoma = tested on: SK-MEL-5 melanoma
SK-OV-3 ovarian = tested on: SK-OV-3 ovarian
SN12C renal = tested on: SN12C renal
SNB-19 CNS = tested on: SNB-19 CNS
SNB-75 CNS = tested on: SNB-75 CNS
SR leukemia = tested on: SR leukemia
SW-620 colon = tested on: SW-620 colon
T-47D breast = tested on: T-47D breast
TK-10 renal = tested on: TK-10 renal
U251 CNS = tested on: U251 CNS
UACC-257 melanoma = tested on: UACC-257 melanoma
UACC-62 melanoma = tested on: UACC-62 melanoma
UO-31 renal = tested on: UO-31 renal

COc1cccc(/C=N/Nc2ncnc3c2cnn3-c2cccc(OC)c2)c1
GI50 (786-0 renal): > 25 µM
TGI (786-0 renal): > 25 µM
GI50 (A498 renal): > 25 µM
TGI (A498 renal): > 25 µM
GI50 (A549 NSCLC): > 25 µM
TGI (A549 NSCLC): > 25 µM
GI50 (ACHN renal): > 25 µM
TGI (ACHN renal): > 25 µM
GI50 (BT-549 breast): > 25 µM
TGI (BT-549 breast): > 25 µM
GI50 (CAKI-1 renal): > 25 µM
TGI (CAKI-1 renal): > 25 µM
GI50 (CCRF-CEM leukemia): > 25 µM
TGI (CCRF-CEM leukemia): > 25 µM
GI50 (COLO 205 colon): > 25 µM
TGI (COLO 205 colon): > 25 µM
GI50 (DU-145 prostate): > 25 µM
TGI (DU-145 prostate): > 25 µM
GI50 (EKVX NSCLC): > 25 µM
TGI (EKVX NSCLC): > 25 µM
GI50 (HCC-2998 colon): > 25 µM
TGI (HCC-2998 colon): > 25 µM
GI50 (HCT-116 colon): > 25 µM
TGI (HCT-116 colon): > 25 µM
GI50 (HCT-15 colon): > 25 µM
TGI (HCT-15 colon): > 25 µM
GI50 (HL-60(TB) leukemia): > 25 µM
TGI (HL-60(TB) leukemia): > 25 µM
GI50 (HOP-62 NSCLC): > 25 µM
TGI (HOP-62 NSCLC): > 25 µM
GI50 (HOP-92 NSCLC): > 25 µM
TGI (HOP-92 NSCLC): > 25 µM
GI50 (HS 578T breast): > 10.6 µM
TGI (HS 578T breast): > 25 µM
GI50 (HT29 colon): > 25 µM
TGI (HT29 colon): > 25 µM
GI50 (IGROV1 ovarian): > 25 µM
TGI (IGROV1 ovarian): > 25 µM
GI50 (K-562 leukemia): > 25 µM
TGI (K-562 leukemia): > 25 µM
GI50 (KM12 colon): > 25 µM
TGI (KM12 colon): > 25 µM
GI50 (LOX IMVI melanoma): > 25 µM
TGI (LOX IMVI melanoma): > 25 µM
GI50 (M14 melanoma): > 25 µM
TGI (M14 melanoma): > 25 µM
GI50 (MALME-3M melanoma): > 25 µM
TGI (MALME-3M melanoma): > 25 µM
GI50 (MCF7 breast): > 25 µM
TGI (MCF7 breast): > 25 µM
GI50 (MDA-MB-231 breast): > 25 µM
TGI (MDA-MB-231 breast): > 25 µM
GI50 (MDA-MB-435): > 25 µM
TGI (MDA-MB-435): > 25 µM
GI50 (MOLT-4 leukemia): > 25 µM
TGI (MOLT-4 leukemia): > 25 µM
GI50 (NCI-H226 lung): > 25 µM
TGI (NCI-H226 lung): > 25 µM
GI50 (NCI-H23 lung): > 25 µM
TGI (NCI-H23 lung): > 25 µM
GI50 (NCI-H460 lung): > 25 µM
TGI (NCI-H460 lung): > 25 µM
GI50 (NCI-H522 lung): > 25 µM
TGI (NCI-H522 lung): > 25 µM
GI50 (NCI/ADR-RES ovarian): > 25 µM
TGI (NCI/ADR-RES ovarian): > 25 µM
GI50 (OVCAR-3 ovarian): > 25 µM
TGI (OVCAR-3 ovarian): > 25 µM
GI50 (OVCAR-4 ovarian): > 25 µM
TGI (OVCAR-4 ovarian): > 25 µM
GI50 (OVCAR-5 ovarian): > 25 µM
TGI (OVCAR-5 ovarian): > 25 µM
GI50 (OVCAR-8 ovarian): > 25 µM
TGI (OVCAR-8 ovarian): > 25 µM
GI50 (PC-3 prostate): > 25 µM
TGI (PC-3 prostate): > 25 µM
GI50 (RPMI-8226 leukemia): > 25 µM
TGI (RPMI-8226 leukemia): > 25 µM
GI50 (RXF 393 renal): > 25 µM
TGI (RXF 393 renal): > 25 µM
GI50 (SF-268 CNS): > 25 µM
TGI (SF-268 CNS): > 25 µM
GI50 (SF-295 CNS): > 25 µM
TGI (SF-295 CNS): > 25 µM
GI50 (SF-539 CNS): > 25 µM
TGI (SF-539 CNS): > 25 µM
GI50 (SK-MEL-2 melanoma): > 25 µM
TGI (SK-MEL-2 melanoma): > 25 µM
GI50 (SK-MEL-28 melanoma): > 25 µM
TGI (SK-MEL-28 melanoma): > 25 µM
GI50 (SK-MEL-5 melanoma): > 25 µM
TGI (SK-MEL-5 melanoma): > 25 µM
GI50 (SK-OV-3 ovarian): > 25 µM
TGI (SK-OV-3 ovarian): > 25 µM
GI50 (SN12C renal): > 25 µM
TGI (SN12C renal): > 25 µM
GI50 (SNB-19 CNS): > 25 µM
TGI (SNB-19 CNS): > 25 µM
GI50 (SNB-75 CNS): > 25 µM
TGI (SNB-75 CNS): > 25 µM
GI50 (SR leukemia): > 25 µM
TGI (SR leukemia): > 25 µM
GI50 (SW-620 colon): > 25 µM
TGI (SW-620 colon): > 25 µM
GI50 (T-47D breast): > 25 µM
TGI (T-47D breast): > 25 µM
GI50 (TK-10 renal): > 25 µM
TGI (TK-10 renal): > 25 µM
GI50 (U251 CNS): > 25 µM
TGI (U251 CNS): > 25 µM
GI50 (UACC-257 melanoma): > 25 µM
TGI (UACC-257 melanoma): > 25 µM
GI50 (UACC-62 melanoma): > 25 µM
TGI (UACC-62 melanoma): > 25 µM
GI50 (UO-31 renal): > 25 µM
TGI (UO-31 renal): > 25 µM
